Test results: patent US20150307938A1, “METHOD TO IDENTIFY A NOVEL CLASS OF IMMUNOLOGIC ADJUVANTS” (Lancell, L.L.C., priority 2011, published 2015)

System: skin
Test: Affymetrix microarray of skin, DBP-4 hr and analogs vs. untreated; gene selection by log-2 fold change, Wilcoxon, Kendall tau (Tables 8, 9)
Type: in vivo, mouse
Details: for Wilcoxon: DBP-4 hr vs. untreated, selected by p-value; for Kendall: selected by Kendall tau, expression vs. output
[1] = gene 1500032L24Rik NM_026914_at
[2] = gene 2210016L21Rik NM_028211_at
[3] = gene 4931408A02Rik NM_027627_at
[4] = gene 4933407C03Rik NM_028941_at
[5] = gene 5730494N06Rik NM_027478_at

With `CCCCOC(=O)c1ccccc1C(=O)OCCCC` [DBP, dibutylphthalate] the Wilcoxon [1] was “No”, the Kendall [1] was “Yes” and the Wilcoxon [2] was “No”. The Kendall [2] was “Yes”, the Wilcoxon [3] was “No” and the Kendall [3] was “Yes”. The Wilcoxon [4] was “No”, the Kendall [4] was “Yes” and the Wilcoxon [5] was “No”. For the same compound, the Kendall [5] was “Yes”, the Wilcoxon (gene Ankrd24 NM_027480_at) was “No” and the Kendall (gene Ankrd24 NM_027480_at) was “Yes”. The Wilcoxon (gene Cby1 NM_028634_at) was “No”, the Kendall (gene Cby1 NM_028634_at) was “Yes” and the Wilcoxon (gene Ccdc123 NM_028120_at) was “No”. The Kendall (gene Ccdc123 NM_028120_at) was “Yes”, the Wilcoxon (gene Cdc42ep1 NM_027219_at) was “No” and the Kendall (gene Cdc42ep1 NM_027219_at) was “Yes”. For the same compound, the Wilcoxon (gene Cdca4 NM_028023_at) was “No”, the Kendall (gene Cdca4 NM_028023_at) was “Yes” and the Wilcoxon (gene Cenpv NM_028448_at) was “No”. For the same compound, the Kendall (gene Cenpv NM_028448_at) was “Yes”, the Wilcoxon (gene Chst14 NM_028117_at) was “No” and the Kendall (gene Chst14 NM_028117_at) was “Yes”. The Wilcoxon (gene Cnot8 NM_026949_at) was “No”, the Kendall (gene Cnot8 NM_026949_at) was “Yes” and the Wilcoxon (gene Ebpl NM_026598_at) was “No”. The Kendall (gene Ebpl NM_026598_at) was “Yes”, the Wilcoxon (gene Ict1 NM_026729_at) was “No” and the Kendall (gene Ict1 NM_026729_at) was “Yes”. For the same compound, the Wilcoxon (gene Ift80 NM_026641_at) was “No”, the Kendall (gene Ift80 NM_026641_at) was “Yes” and the Wilcoxon (gene Lrrfip2 NM_027742_at) was “No”. For the same compound, the Kendall (gene Lrrfip2 NM_027742_at) was “Yes”, the Wilcoxon (gene Med23 NM_027347_at) was “No” and the Kendall (gene Med23 NM_027347_at) was “Yes”. The Wilcoxon (gene Mlh1 NM_026810_at) was “No”, the Kendall (gene Mlh1 NM_026810_at) was “Yes” and the Wilcoxon (gene Mterfd3 NM_028832_at) was “No”. For the same compound, the Kendall (gene Mterfd3 NM_028832_at) was “Yes”, the Wilcoxon (gene Rnf135 NM_028019_at) was “No” and the Kendall (gene Rnf135 NM_028019_at) was “Yes”. The Wilcoxon (gene Rnf157 NM_027258_at) was “No”, the Kendall (gene Rnf157 NM_027258_at) was “Yes” and the Wilcoxon (gene Rrp1b NM_028244_at) was “No”. For the same compound, the Kendall (gene Rrp1b NM_028244_at) was “Yes”, the Wilcoxon (gene Slc25a35 NM_028048_at) was “No” and the Kendall (gene Slc25a35 NM_028048_at) was “Yes”. For the same compound, the Wilcoxon (gene Tmem55a NM_028264_at) was “No”, the Kendall (gene Tmem55a NM_028264_at) was “Yes” and the Wilcoxon (gene Tmem80 NM_027797_at) was “No”. The Kendall (gene Tmem80 NM_027797_at) was “Yes”, the Wilcoxon (gene Tmtc4 NM_028651_at) was “No” and the Kendall (gene Tmtc4 NM_028651_at) was “Yes”. The Wilcoxon (gene Zfyve21 NM_026752_at) was “No” and the Kendall (gene Zfyve21 NM_026752_at) was “Yes”.
